US20230414735A1, “NEOANTIGENS AND METHODS OF THEIR USE” (priority 2016, published 2023)
Read-outs that look alike come from different tables or passages of the source. Where a SMILES comes first, the peptide text is derived from it. Where no end group is shown, it is not given here.

What was measured:
[1] = system: HLA Class I molecules; experiment: HLA class I binding stability assay (pMHC-I complex dissociation, 125I-labeled β2m, scintillation counts); set-up: species or system human
Protocol: These reactions are carried out in streptavidin coated microplates to bind th biotinylated MHC-I heavy chains to the surface and allow measurement of radiolabeled light chain to monitor complex formation. Dissociation is initiated by addition of higher concentations of unlabled light-chain and incubation at 37° C. Stability is defined as the length of time in hours it takes for half of the complexes to dissociate, as measured by scintillation counts

[2] = target: HLA class I molecule; experiment: HLA class I peptide binding affinity assay (inhibition of 125I-radiolabeled probe peptide binding to purified HLA); set-up: species or system human; details: read-out: Observed Affinity (IC50, (nM))
Protocol: (§1) Epstein-Barr virus (EBV)-transformed homozygous cell lines, fibroblasts, CIR, or 721.22 transfectants are used as sources of HLA class I molecules. […] HLA molecules are purified from lysates by affinity chromatography. The lysates are passed over a column of Sepharose CL-4B beads coupled to an appropriate antibody. […] A 1/25 volume of 2.0 M Tris, pH 6.8, is added to the eluate to reduce the pH to […]. Eluates are then concentrated by centrifugation in Centriprep 30 concentrators (Amicon, Beverly, MA). Protein content is evaluated by a BCA protein assay (Pierce Chemical Co., Rockford, IL) and confirmed by SDS-PAGE.
(§2) Following incubation, MHC-peptide complexes are separated from free peptide by gel filtration on 7.8 mm×15 cm TSK200 columns (TosoHaas 16215, Montgomeryville, PA). Because the large size of the radiolabeled peptide used for the DRB1*1501 (DR2w2(31) assay makes separation of bound from unbound peaks more difficult under these conditions, all DRB1*1501 (DR2w2(31) assays were performed using a 7.8 mm×30 cm TSK2000 column eluted at 0.6 mLs/min. The eluate from the TSK columns is passed through a Beckman 170 radioisotope detector, and radioactivity is plotted and integrated using a Hewlett-Packard 3396A integrator, and the fraction of peptide bound is determined.
(§3) Radiolabeled peptides are iodinated using the chloramine-T method. […] All subsequent inhibition and direct binding assays are performed using these HLA concentrations.
(§4) Since under these conditions [label]<[HLA] and IC50≥[HLA], the measured IC50 values are reasonable approximations of the true KD values. […] For database purposes, and inter-experiment comparisons, relative binding values are compiled. These values can subsequently be converted back into IC50 nM values by dividing the IC50 nM of the positive controls for inhibition by the relative binding of the peptide of interest.
(§5) HLA binding assays were used to evaluate either the affinity of interaction of a given epitope with a selected HLA molecule or the stability.
(§6) The measurements are plotted against the predicted affinity in FIG. 1.

[3] = system: HLA-A02:01+ T cells (CD8+ T cells); experiment: Immunogenicity assay: CD8+ T cell expansion with peptide-loaded monocyte-derived dendritic cells, multimer/tetramer staining; type: cell-based, human; details: HLA-A02:01^+ T cells co-cultured 10 days with peptide-loaded monocyte-derived dendritic cells; initial and validation multimer preparations; shown as examples of positive multimer staining (FIGS. 3-6)
Protocol: Immunogenicity assays are used to test the ability of each test peptide to expand T cells. Mature professional APCs are prepared for these assays in the following way. Monocytes are enriched from healthy human donor PBMCs using a bead-based kit (Miltenyi). Enriched cells are plated in GM-CSF and IL-4 to induce immature DCs. After 5 days, immature DCs are incubated at 37° C. with each peptide for 1 hour before addition of a cytokine maturation cocktail (GM-CSF, IL-1β, IL-4, IL-6, TNFα, PGE1β). Cells are incubated at 37° C. to mature DCs.
After maturation of DCs, PBMCs (either bulk or enriched for T cells) are added to mature dendritic cells with proliferation cytokines. Cultures are monitored for peptide-specific T cells using a combination of functional assays and/or tetramer staining Parallel immunogenicity assays with the modified and parent peptides allowed for comparisons of the relative efficiency with which the peptides expanded peptide-specific T cells.
Tetramer Staining. MHC tetramers are purchased or manufactured on-site, and are used to measure peptide-specific T cell expansion in the immunogenicity assays. For the assessment, tetramer is added to 1×10^5 cells in PBS containing 1% FCS and 0.1% sodium azide (FACS buffer) according to manufacturer's instructions. Cells are incubated in the dark for 20 minutes at room temperature. […] Cells are washed with cold FACS buffer and resuspended in buffer containing 1% formaldehyde. Cells are acquired on a FACS Calibur (Becton Dickinson) instrument, and are analyzed by use of Cellquest software (Becton Dickinson). For analysis of tetramer positive cells, the lymphocyte gate is taken from the forward and side-scatter plots. Data are reported as the percentage of cells that were CD8^+/Tetramer^+.
Immunogenicity assays were carried out to assess whether each peptide can elicit a T cell response by antigen-specific expansion. […] Each positive result was measured with a second multimer preparation to avoid any preparation biases.

[4] = target: T1, HLA class I molecule (Homo sapiens, UniProt P04439); experiment: HLA class I peptide binding affinity assay (inhibition of 125I-radiolabeled probe peptide binding to purified HLA); details: Allele A03.01; read-out: Observed Affinity (IC50; (nM))
T1 construct: made in house; host or cells: EBV-transformed homozygous cell lines, fibroblasts, CIR or 721.22 transfectants; purified from detergent lysates on an anti-HLA antibody column
T1 sequence (P04439 25-365): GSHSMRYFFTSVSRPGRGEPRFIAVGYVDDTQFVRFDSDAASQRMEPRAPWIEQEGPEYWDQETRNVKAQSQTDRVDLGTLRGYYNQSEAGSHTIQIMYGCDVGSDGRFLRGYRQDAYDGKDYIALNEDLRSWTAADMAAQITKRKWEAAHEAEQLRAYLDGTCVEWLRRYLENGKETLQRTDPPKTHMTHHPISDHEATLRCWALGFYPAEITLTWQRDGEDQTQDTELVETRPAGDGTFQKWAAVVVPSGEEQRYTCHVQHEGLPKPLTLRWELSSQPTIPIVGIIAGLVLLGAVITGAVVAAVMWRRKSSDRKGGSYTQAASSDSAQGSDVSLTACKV
T1 sequence (P61769 21-119 partner): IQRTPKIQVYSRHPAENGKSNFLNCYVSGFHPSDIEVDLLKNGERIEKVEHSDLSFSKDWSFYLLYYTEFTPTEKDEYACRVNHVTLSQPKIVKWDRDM
Protocol: as §1, §2, §3, §4, §5, §6

[5] = system: ovarian carcinoma patients; details: ovarian carcinoma patients immunized with poly-ICLC in combination with a NYESO-1 peptide vaccine (in addition to Montanide); phase 1 study; cited from earlier work
[6] = allele A02.01, pMHC-I dissociation at 37° C.

Row | Compound | IC50 ([2]; allele A02.01) [nM] | Stability (T1/2 (h)) [1, 6] [h] | Stability (T1/2 (h)) ([1]; allele A02.01, 37° C.) [h] | also measured
1 | YLVIQLQDKF | 2060 |  |  | Stability (T1/2 (h)) ([1]; allele A24.02, pMHC-I dissociation at 37° C.): 2.6 h; IC50 ([2]; allele A24.02): 2150 nM
2 | GVYTFLPSTL | 1200 | 0.4 |  | 
3 | CC[C@H](C)[C@H](NC(=O)[C@@H](N)CC(C)C)C(=O)N[C@@H](CCSC)C(=O)N[C@@H](CCC(N)=O)C(=O)N[C@@H](CC(C)C)C(=O)N[C@@H](CCSC)C(=O)N1CCC[C@H]1C(=O)N[C@@H](Cc1ccccc1)C(=O)NCC(=O)N[C@@H](CS)C(=O)O | 177 | 0.4 |  | 
4 | YQQQQQSDL | 799 |  | 0.4 | IC50 ([2]; allele B08.01): 18900 nM
5 | CC(C)C[C@H](NC(=O)CN)C(=O)N[C@H](C(=O)N[C@@H](CC(=O)O)C(=O)N[C@@H](CCC(=O)O)C(=O)N[C@@H](CCC(N)=O)C(=O)N[C@@H](CCC(N)=O)C(=O)N[C@@H](CCC(=O)O)C(=O)N[C@H](C(=O)O)C(C)C)C(C)C | 44 |  | 7.4 | 
6 | LQMDFLVHPA | 68 | 1.5 |  | 
7 | ALSASNSCFI | 226 |  | 0.8 | 
8 | WMTETLFDI | 14 |  | 4 | 
9 | VLLSVHLIV | 72 | 11 |  | 
10 | LLCVWVSSI [HLA-A02:01] |  |  |  | antigen-specific (multimer-double-positive) CD8^+ T cells, multimer staining [3]: antigen-specificity
11 | GVYTFLPST | 779 | 1.3 |  | 
12 | SMLTDSLFL | 31 |  | 9.8 | 
13 | CC[C@H](C)[C@H](NC(=O)[C@H](Cc1c[nH]c2ccccc12)NC(=O)[C@H](CS)NC(=O)[C@H](Cc1ccccc1)NC(=O)[C@@H](N)Cc1ccccc1)C(=O)N[C@@H](CC(C)C)C(=O)N[C@@H](CO)C(=O)N[C@@H](CS)C(=O)N[C@@H](CCCCN)C(=O)O (H-FFCWILSCK-OH) |  |  |  | IC50 [4]: 185 nM
14 | PLYGLLLEM | 640 | 0.7 |  | 
15 | VMAGLGSPYV | 102 |  | 2.9 | 
16 | poly-ICLC |  |  |  | patients showing induction of CD4+ and CD8+ T cell, as well as antibody responses to the peptide [5]: > 90%
17 | SMLTGPPARV [HLA-A02:01] |  |  |  | antigen-specific (multimer-double-positive) CD8^+ T cells, multimer staining [3]: antigen-specificity
18 | CLADVLLSV | 219 | 24 |  | 
19 | WLHKRGKYI | 1250 | 1.2 |  | Stability (T1/2 (h)) ([1]; allele B08.01, pMHC-I dissociation at 37° C.): 1.3 h; IC50 ([2]; allele B08.01): 417 nM
20 | ALSEHCPTT | 79 |  | 27.3 | 
21 | PLCDLLLEM | 602 | 0.8 |  | 
22 | ILMELMAGG | 223 | 0.5 |  | 
23 | CC(C)C[C@H](NC(=O)[C@H](C)N)C(=O)N[C@@H](CC(N)=O)C(=O)N[C@@H](CO)C(=O)N[C@@H](CCC(=O)O)C(=O)N[C@@H](C)C(=O)N[C@@H](CC(C)C)C(=O)N[C@@H](CO)C(=O)N[C@H](C(=O)N[C@H](C(=O)O)C(C)C)C(C)C | 15 |  | 2.9 | 
24 | LMELMAGGDL | 311 | 8.9 |  | 
25 | VLTVTSTDV | 295 |  | 1.1 | 
26 | KLGGGQHGEV | 387 | 0.4 |  | 
